The values that follow come from patent US10336762B2 (priority 2017, dated 2019).

One assay addresses IRAK4 enzyme (Homo sapiens (Human), UniProt Q9NWZ3). The assay is described as follows: biochemical. The assay is classed as biochemical. As to conditions: IRAK4 enzyme, TR-FRET, 500 μM ATP. (TR-FRET usually uses a lanthanide donor and a delayed reading to cut background.)
In a further assay the test system is TNFα. As to the kind of experiment: cells. To be noted: Homo sapiens, Monocyte, LPS-stimulated human monocytes, TNFα content; read-out: EC50 TNF. The format is cell-based, human.

Structures are written as SMILES.

Chain of IRAK4 enzyme (Q9NWZ3 whole entry): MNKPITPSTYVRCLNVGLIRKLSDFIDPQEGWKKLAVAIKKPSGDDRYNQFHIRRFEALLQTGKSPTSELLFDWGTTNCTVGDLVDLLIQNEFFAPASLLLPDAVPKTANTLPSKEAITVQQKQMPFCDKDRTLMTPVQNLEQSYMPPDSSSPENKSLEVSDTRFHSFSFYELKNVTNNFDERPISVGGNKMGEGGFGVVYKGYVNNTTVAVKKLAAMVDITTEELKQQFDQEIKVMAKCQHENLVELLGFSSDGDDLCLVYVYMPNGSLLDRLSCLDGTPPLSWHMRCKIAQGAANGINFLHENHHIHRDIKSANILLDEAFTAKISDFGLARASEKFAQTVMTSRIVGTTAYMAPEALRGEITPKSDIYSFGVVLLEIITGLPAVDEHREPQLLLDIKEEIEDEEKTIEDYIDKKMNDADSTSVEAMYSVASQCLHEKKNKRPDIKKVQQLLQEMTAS

Regarding `COC(=O)N1CC[C@H](n2cc(Nc3cc(-c4ccc5cc(C#N)cnn45)ncc3C(=O)NC[C@@H](F)C(C)(C)O)cn2)C1` [Example 224, (S)-methyl 3-(4-((2-(3-cyanopyrrolo[1,2-b]pyridazin-7-yl)-5-(((R)-2-fluoro-3-hydroxy-3-methylbutyl)carbamoyl)pyridin-4-yl)amino)-1H-pyrazol-1-yl) pyrrolidine-1-carboxylate], the IC50 (usually the concentration at which inhibition is half-maximal) against IRAK4 enzyme was 1 nM. The EC50 (commonly the concentration that produces a half-maximal response) in the assay with TNFα amounted to 75 nM.
In the case of `COC(=O)NCc1ccc(Nc2cc(-c3ccc4cc(C#N)cnn34)ncc2C(=O)NC[C@@H](F)C(C)(C)O)cc1` [Example 225, (R)-methyl (4-((2-(3-cyano-pyrrolo[1,2-b]pyridazin-7-yl)-5-((2-fluoro-3-hydroxy-3-methylbutyl)carbamoyl)pyridin-4-yl)amino)benzyl)carbamate], the IC50 against IRAK4 enzyme was under 1 nM. Also, in the assay on TNFα, the EC50 is 6 nM.
For `CC(C)(O)[C@H](F)CNC(=O)c1cnc(-c2ccc3cc(C#N)cnn23)cc1Nc1cncc(C(F)F)c1` [Example 226, (R)-6-(3-cyanopyrrolo[1,2-b]pyridazin-7-yl)-4-((5-(difluoromethyl)pyridin-3-yl)amino)-N-(2-fluoro-3-hydroxy-3-methylbutyl)nicotinamide] the same measures were under 1 nM and 75 nM.
Consider `CC(C)(O)[C@H](F)CNC(=O)c1cnc(-c2ccc3cc(C#N)cnn23)cc1Nc1ccc(C(F)F)nc1` [Example 227, (R)-6-(3-cyanopyrrolo[1,2-b]pyridazin-7-yl)-4-((6-(difluoromethyl)pyridin-3-yl)amino)-N-(2-fluoro-3-hydroxy-3-methylbutyl)nicotinamide], for which, at IRAK4 enzyme, the half-inhibitory concentration (IC50) was under 1 nM. Also, the EC50 with TNFα came out at 31 nM.
In the same order, the values of `CC(C)(O)[C@H](F)CNC(=O)c1cnc(-c2ccc3cc(C#N)cnn23)cc1Nc1ccc(-c2ncco2)cc1` [Example 228, (R)-6-(3-cyanopyrrolo[1,2-b]pyridazin-7-yl)-N-(2-fluoro-3-hydroxy-3-methylbutyl)-4-((4-(oxazol-2-yl)phenyl)amino) nicotinamide] are 2 nM and 114 nM.
Take `CC(C)(O)[C@H](F)CNC(=O)c1cnc(-c2ccc3cc(C#N)cnn23)cc1Nc1cccnc1F` [Example 229, (R)-6-(3-cyanopyrrolo[1,2-b]pyridazin-7-yl)-N-(2-fluoro-3-hydroxy-3-methylbutyl)-4-((2-fluoropyridin-3-yl)amino)nicotinamide]: the IC50 against IRAK4 enzyme was 1 nM. In addition, the EC50 in the assay with TNFα stood at 135 nM.
In the same order, the values of `CC(C)(O)[C@H](F)CNC(=O)c1cnc(-c2ccc3cc(C#N)cnn23)cc1Nc1ccc(-c2ncc[nH]2)cc1` [Example 230, (R)-4-((4-(1H-imidazol-2-yl)phenyl)amino)-6-(3-cyanopyrrolo[1,2-b]pyridazin-7-yl)-N-(2-fluoro-3-hydroxy-3-methylbutyl)nicotinamide] are under 1 nM and 58 nM.
`COC(=O)N1CC(n2cc(Nc3cc(-c4ccc5cc(C#N)cnn45)ncc3C(=O)NC[C@@H](F)C(C)(C)O)cn2)C1` [Example 231, (R)-methyl 3-(4-((2-(3-cyanopyrrolo[1,2-b]pyridazin-7-yl)-5-((2-fluoro-3-hydroxy-3-methylbutyl)carbamoyl)pyridin-4-yl)amino)-1H-pyrazol-1-yl)azetidine-1-carboxylate] had a 50% inhibitory concentration (IC50) against IRAK4 enzyme of under 1 nM. Further, the EC50 with TNFα was 61 nM.
For `CC(C)(O)[C@H](F)CNC(=O)c1cnc(-c2ccc3cc(C#N)cnn23)cc1Nc1cnn(C2CNC2)c1` [Example 232, (R)-4-((1-(azetidin-3-yl)-1H-pyrazol-4-yl)amino)-6-(3-cyanopyrrolo[1,2-b]pyridazin-7-yl)-N-(2-fluoro-3-hydroxy-3-methylbutyl)nicotinamide] the same measures were 1 nM and 425 nM.
Regarding `Cc1cncc(Nc2cc(-c3ccc4cc(C#N)cnn34)ncc2C(=O)NC[C@@H](F)C(C)(C)O)c1` [Example 233, (R)-6-(3-cyanopyrrolo[1,2-b]pyridazin-7-yl)-N-(2-fluoro-3-hydroxy-3-methylbutyl)-4-((5-methylpyridin-3-yl)amino)nicotinamide], on IRAK4 enzyme, the 50% inhibitory concentration (IC50) amounted to 1 nM. The EC50 with TNFα is 170 nM.
In turn, `CC(C)(O)[C@H](F)CNC(=O)c1cnc(-c2ccc3cc(C#N)cnn23)cc1Nc1ccc(-c2c[nH]cn2)cc1` [Example 234, (R)-4-((4-(1H-imidazol-4-yl)phenyl)amino)-6-(3-cyanopyrrolo[1,2-b]pyridazin-7-yl)-N-(2-fluoro-3-hydroxy-3-methylbutyl) nicotinamide] returned a half-inhibitory concentration (IC50) at IRAK4 enzyme of under 1 nM. Besides, in the assay with TNFα, the 50% effective concentration (EC50) was 33 nM.
In the same order, the values of `COC(=O)N1CCC(n2cc(Nc3cc(-c4ccc5cc(C#N)cnn45)ncc3C(=O)NC[C@@H](F)C(C)(C)O)cn2)CC1` [Example 235, (R)-methyl 4-(4-((2-(3-cyanopyrrolo[1,2-b]pyridazin-7-yl)-5-((2-fluoro-3-hydroxy-3-methylbutyl)carbamoyl)pyridin-4-yl)amino)-1H-pyrazol-1-yl)piperidine-1-carboxylate] are 2 nM and 166 nM.
`CC(C)(O)[C@H](F)CNC(=O)c1cnc(-c2ccc3cc(C#N)cnn23)cc1Nc1cnn(C2CCNCC2)c1` [Example 236, (R)-6-(3-cyanopyrrolo[1,2-b]pyridazin-7-yl)-N-(2-fluoro-3-hydroxy-3-methylbutyl)-4-((1-(piperidin-4-yl)-1H-pyrazol-4-yl)amino) nicotinamide] displayed a 50% inhibitory concentration (IC50) on IRAK4 enzyme of 1 nM. For the same compound, the EC50 with TNFα came out at 379 nM.
With `CC(C)(O)[C@H](F)CNC(=O)c1cnc(-c2ccc3cc(C#N)cnn23)cc1Nc1cnn([C@H]2CCOC2)c1` [Example 237, 6-(3-cyanopyrrolo[1,2-b]pyridazin-7-yl)-N-((R)-2-fluoro-3-hydroxy-3-methylbutyl)-4-((1-((S)-tetrahydrofuran-3-yl)-1H-pyrazol-4-yl)amino) nicotinamide], at IRAK4 enzyme, the IC50 came to 1 nM. Moreover, in the assay with TNFα, the EC50 is 23 nM.
For `CC(C)(O)[C@H](F)CNC(=O)c1cnc(-c2ccc3cc(C#N)cnn23)cc1N[C@@H]1CC2CN(C(N)=O)C[C@H]2C1` (stereo partly drawn) [Example 238, (3aR,5s,6aS)-5-((2-(3-cyanopyrrolo[1,2-b]pyridazin-7-yl)-5-(((R)-2-fluoro-3-hydroxy-3-methylbutyl)carbamoyl)pyridin-4-yl)amino)hexa-hydrocyclopenta[c]pyrrole-2(1H)-carboxamide] the same measures were under 1 nM and 225 nM.
In turn, `CC(C)(O)[C@H](F)CNC(=O)c1cnc(-c2ccc3cc(C#N)cnn23)cc1Nc1cnn([C@@H]2CCOC2)c1` [Example 239, 6-(3-cyanopyrrolo[1,2-b]pyridazin-7-yl)-N-((R)-2-fluoro-3-hydroxy-3-methylbutyl)-4-((1-((R)-tetrahydrofuran-3-yl)-1H-pyrazol-4-yl)amino) nicotinamide] showed an IC50 against IRAK4 enzyme of under 1 nM. In the assay with TNFα, the EC50 was 24 nM.
For `CC(C)(O)[C@H](F)CNC(=O)c1cnc(-c2ccc3cc(C#N)cnn23)cc1N[C@@H]1CNCCC1(F)F` [Example 240, 6-(3-cyanopyrrolo[1,2-b]pyridazin-7-yl)-4-(((R)-4,4-difluoropiperidin-3-yl)amino)-N-((R)-2-fluoro-3-hydroxy-3-methylbutyl) nicotinamide] the same measures were 1 nM and 27 nM.
In the same order, the values of `CC(=O)NCc1ccc(Nc2cc(-c3ccc4cc(C#N)cnn34)ncc2C(=O)NC[C@@H](F)C(C)(C)O)cc1` [Example 241, (R)-4-((4-(acetamidomethyl)phenyl)amino)-6-(3-cyanopyrrolo[1,2-b]pyridazin-7-yl)-N-(2-fluoro-3-hydroxy-3-methylbutyl)nicotinamide] are under 1 nM and 16 nM.
In turn, `COC(=O)N1CCC(Nc2cc(-c3ccc4cc(C#N)cnn34)ncc2C(=O)NC[C@@H](F)C(C)(C)O)CC1` [Example 242, (R)-methyl 4-((2-(3-cyano-pyrrolo[1,2-b]pyridazin-7-yl)-5-((2-fluoro-3-hydroxy-3-methylbutyl)carbamoyl)pyridin-4-yl)amino)piperidine-1-carboxylate] showed an IC50 against IRAK4 enzyme of 2 nM. Moreover, the EC50 in the assay on TNFα stood at 191 nM.
`CN(C)C(=O)N1CCC(Nc2cc(-c3ccc4cc(C#N)cnn34)ncc2C(=O)NC[C@@H](F)C(C)(C)O)CC1` [Example 243, (R)-6-(3-cyanopyrrolo[1,2-b]pyridazin-7-yl)-4-((1-(dimethylcarbamoyl)piperidin-4-yl)amino)-N-(2-fluoro-3-hydroxy-3-methylbutyl)nicotinamide] came in with a concentration for half-maximal inhibition (IC50) against IRAK4 enzyme of 2 nM. In addition, in the assay with TNFα, the EC50 is 218 nM.
In the same order, the values of `CN(C)S(=O)(=O)N1CCC(Nc2cc(-c3ccc4cc(C#N)cnn34)ncc2C(=O)NC[C@@H](F)C(C)(C)O)CC1` [Example 244, (R)-6-(3-cyanopyrrolo[1,2-b]pyridazin-7-yl)-4-((1-(N,N-dimethylsulfamoyl)piperidin-4-yl)amino)-N-(2-fluoro-3-hydroxy-3-methylbutyl) nicotinamide] are 1 nM and 102 nM.
For `CN1CC2C[C@@H](Nc3cc(-c4ccc5cc(C#N)cnn45)ncc3C(=O)NC[C@@H](F)C(C)(C)O)C[C@@H]2C1` (stereo partly drawn) [Example 245, 6-(3-cyanopyrrolo[1,2-b]pyridazin-7-yl)-N-((R)-2-fluoro-3-hydroxy-3-methylbutyl)-4-(((3aR,5s,6aS)-2-methyloctahydrocyclopenta[c]pyrrol-5-yl)amino)nicotinamide], the IC50 on IRAK4 enzyme was 2 nM. Besides, the EC50 in the assay with TNFα worked out at 92 nM.
At IRAK4 enzyme, `CC(=O)N1C[C@H]2C[C@@H](Nc3cc(-c4ccc5cc(C#N)cnn45)ncc3C(=O)NC[C@@H](F)C(C)(C)O)C[C@H]2C1` [Example 246, 4-(((3aR,5r,6aS)-2-acetyl-octahydrocyclopenta[c]pyrrol-5-yl)amino)-6-(3-cyanopyrrolo[1,2-b]pyridazin-7-yl)-N-((R)-2-fluoro-3-hydroxy-3-methylbutyl)nicotinamide] yielded an IC50 of 17 nM. Besides, the EC50 in the assay with TNFα was determined as 637 nM.
